From patent publication US20190048321A1, “Macrophage Enrichment of Cancer Stem Cells” (UNIVERSITY OF SOUTH CAROLINA, priority 2017, published 2019)

Tests used:
[1] = tested on: CSCs in MDA-MB-231 breast tumor cells; experiment: 3D PEGDA hydrogel co-culture of MDA-MB-231 cancer cells with macrophages treated with Paclitaxel (MDA+Mac/PTX); type: cell-based, human
Protocol: (§1) Polyethylene glycol was functionalized with acrylate end-groups by reaction with acryloyl chloride using well-established procedures to generate a photopolymerizable polyethylene glycol diacrylate (PEGDA). The PEGDA and a photoinitiator (4-(2-hydroxyethoxy)phenyl-(2-hydroxy-2-propyl) ketone (commercial name Irgacure-2959)) were dissolved in aqueous solution to generate a hydrogel precursor solution. Prior to cure, the hydrogel precursor solution was combined with MDA-MB-231 human breast cancer cells alone (MDA), with human spleen-derived macrophages alone (Mac) or with both (MDA+Mac).
(§2) To form the matrices, the cancer cells and/or macrophages were suspended in the PEGDA hydrogel precursor solution, the suspension was pipetted in a tissue culture plate as a thin film, and the film was photopolymerized with UV radiation to encapsulate the cells in the hydrogel matrix.
(§3) This co-culture system was also used to screen Paclitaxel (PTX) toxicity against CSCs. […] MDA cancer cells cultured alone with no PTX (MDA) grew by forming tumor spheres with mixed population of stem and differentiated cells and as shown the growing cells expressed CSC markers.

[2] = tested on: MDA-MB-231 human breast cancer cells; experiment: 3D PEGDA hydrogel culture of MDA-MB-231 cancer cells alone treated with Paclitaxel (MDA+PTX); type: cell-based
Protocol: as §1, §2, §3

MDA-MB-231 cells = settings: 2D tissue culture plates, previous studies; cited from earlier work

## CC(=O)O[C@H]1C(=O)[C@@]2(C)[C@H]([C@H](OC(=O)c3ccccc3)[C@]3(O)C[C@H](OC(=O)[C@H](O)[C@@H](NC(=O)c4ccccc4)c4ccccc4)C(C)=C1C3(C)C)[C@]1(OC(C)=O)CO[C@@H]1C[C@@H]2O [PTX, Paclitaxel]
[1]; MDA cancer cells with macrophages in 5 kPa PEGDA matrix, treated with PTX (FIG. 4a)
  cell growth / cell content: effective in halting cell growth and the cell content decreased
[1]; MDA cancer cells with macrophages treated with PTX, with incubation (FIG. 4b-d)
  expression of CSC markers (CD44, ABCG2, EGFR): sharply increased
[1]; MDA+Mac/PTX co-culture screen, MDA-MB-231 breast tumor cells
  effectiveness against CSCs: ineffective against CSCs
[2]; MDA cancer cells alone treated with PTX (MDA+PTX) (FIG. 4a)
  cell number: increased somewhat
[2]; MDA cancer cells alone treated with PTX (MDA+PTX) (FIG. 4b-d)
  expression of CSC markers: increased significantly
MDA-MB-231 cells
  effectiveness against MDA-MB-231 cells: effective
